Measurements as given in publication PMC4854315, “Discovery of a novel allosteric inhibitor-binding site in ERK5: comparison with the canonical kinase hinge ATP-binding site” (Acta Crystallographica. Section D, Structural Biology, 2016).

Columns and labels:
Assay in all cases: Z'-LYTE kinase panel
Format in all cases: biochemical
DYRK4 = target: T1, DYRK4 (Homo sapiens, UniProt Q9NR20)
T1 construct: purchased ThermoFisher (SelectScreen, Z'-LYTE)
T1 sequence (Q9NR20 1-520): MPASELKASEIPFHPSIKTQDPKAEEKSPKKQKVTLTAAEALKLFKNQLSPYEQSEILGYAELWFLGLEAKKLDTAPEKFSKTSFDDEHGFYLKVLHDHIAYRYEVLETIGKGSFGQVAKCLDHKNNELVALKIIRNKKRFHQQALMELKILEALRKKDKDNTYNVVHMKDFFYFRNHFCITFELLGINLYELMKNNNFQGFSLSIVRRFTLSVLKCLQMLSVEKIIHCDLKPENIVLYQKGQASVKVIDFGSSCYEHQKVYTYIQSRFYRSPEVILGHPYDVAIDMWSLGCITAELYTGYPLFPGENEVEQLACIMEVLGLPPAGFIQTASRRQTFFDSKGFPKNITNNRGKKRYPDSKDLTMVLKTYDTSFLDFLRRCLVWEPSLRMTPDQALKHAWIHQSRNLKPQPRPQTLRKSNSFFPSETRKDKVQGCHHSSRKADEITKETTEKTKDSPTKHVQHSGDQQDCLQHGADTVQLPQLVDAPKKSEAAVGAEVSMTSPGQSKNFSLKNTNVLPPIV
In short: (§1)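 Percentage inhibition comes from a one-concentration (10 µM) Z′-LYTE screen run under standard protocol over 225 panel kinases.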

FES (FPS) = target: T2, FES (FPS) (Homo sapiens, UniProt P07332)
T2 construct: purchased ThermoFisher (SelectScreen, Z'-LYTE)
In short: as §1

PTK2B (FAK2) = target: T3, PTK2B (FAK2) (Homo sapiens, UniProt Q14289)
T3 construct: purchased ThermoFisher (SelectScreen, Z'-LYTE)
In short: as §1

[1] = target: T4, MAPK14 (p38 alpha) Direct (Homo sapiens, UniProt Q16539)
T4 construct: purchased ThermoFisher (SelectScreen, Z'-LYTE)
In short: as §1

LTK (TYK1) = target: T5, LTK (TYK1) (Homo sapiens, UniProt P29376)
T5 construct: purchased ThermoFisher (SelectScreen, Z'-LYTE)
In short: as §1

BTK = target: T6, BTK (Homo sapiens, UniProt Q06187)
T6 construct: purchased ThermoFisher (SelectScreen, Z'-LYTE)
In short: as §1

MAPK11 (p38 beta) = target: T7, MAPK11 (p38 beta) (Homo sapiens, UniProt Q15759)
T7 construct: purchased ThermoFisher (SelectScreen, Z'-LYTE)
In short: as §1

STK25 (YSK1) = target: T8, STK25 (YSK1) (Homo sapiens, UniProt O00506)
T8 construct: purchased ThermoFisher (SelectScreen, Z'-LYTE)
In short: as §1

CDK5/p35 = target: T9, CDK5/p35 (Homo sapiens, UniProt Q00535)
T9 construct: purchased ThermoFisher (SelectScreen, Z'-LYTE)
In short: as §1

AKT2 (PKB beta) = target: T10, AKT2 (PKB beta) (Homo sapiens, UniProt P31751)
T10 construct: purchased ThermoFisher (SelectScreen, Z'-LYTE)
In short: as §1

PRKCZ (PKC zeta) = target: T11, PRKCZ (PKC zeta) (Homo sapiens, UniProt Q05513)
T11 construct: purchased ThermoFisher (SelectScreen, Z'-LYTE)
T11 sequence (Q05513 1-592): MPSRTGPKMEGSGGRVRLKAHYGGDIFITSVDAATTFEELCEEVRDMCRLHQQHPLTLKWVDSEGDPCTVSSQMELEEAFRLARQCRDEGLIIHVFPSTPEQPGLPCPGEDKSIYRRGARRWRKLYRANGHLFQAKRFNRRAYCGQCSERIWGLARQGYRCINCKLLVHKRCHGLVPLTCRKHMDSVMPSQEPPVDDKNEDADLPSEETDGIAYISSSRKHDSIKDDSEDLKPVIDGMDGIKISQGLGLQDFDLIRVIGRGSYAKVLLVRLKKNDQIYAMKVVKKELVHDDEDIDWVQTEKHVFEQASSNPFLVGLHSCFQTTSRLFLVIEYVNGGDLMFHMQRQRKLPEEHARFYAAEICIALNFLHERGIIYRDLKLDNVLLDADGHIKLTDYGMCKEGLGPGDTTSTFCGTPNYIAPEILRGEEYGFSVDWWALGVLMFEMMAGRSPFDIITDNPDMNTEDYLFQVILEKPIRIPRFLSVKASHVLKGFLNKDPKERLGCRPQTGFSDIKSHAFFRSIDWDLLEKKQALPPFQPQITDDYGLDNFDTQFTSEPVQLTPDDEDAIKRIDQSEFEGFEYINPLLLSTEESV
In short: as §1

CLK1 = target: T12, CLK1 (Homo sapiens, UniProt P49759)
T12 construct: purchased ThermoFisher (SelectScreen, Z'-LYTE)
In short: as §1

FRK (PTK5) = target: T13, FRK (PTK5) (Homo sapiens, UniProt P42685)
T13 construct: purchased ThermoFisher (SelectScreen, Z'-LYTE)
In short: as §1

RET = target: T14, RET (Homo sapiens, UniProt P07949)
T14 construct: purchased ThermoFisher (SelectScreen, Z'-LYTE)
In short: as §1

STK24 (MST3) = target: T15, STK24 (MST3) (Homo sapiens, UniProt Q9Y6E0)
T15 construct: purchased ThermoFisher (SelectScreen, Z'-LYTE)
In short: as §1

DAPK3 (ZIPK) = target: T16, DAPK3 (ZIPK) (Homo sapiens, UniProt O43293)
T16 construct: purchased ThermoFisher (SelectScreen, Z'-LYTE)
In short: as §1

STK4 (MST1) = target: T17, STK4 (MST1) (Homo sapiens, UniProt Q13043)
T17 construct: purchased ThermoFisher (SelectScreen, Z'-LYTE)
T17 sequence (Q13043 1-487): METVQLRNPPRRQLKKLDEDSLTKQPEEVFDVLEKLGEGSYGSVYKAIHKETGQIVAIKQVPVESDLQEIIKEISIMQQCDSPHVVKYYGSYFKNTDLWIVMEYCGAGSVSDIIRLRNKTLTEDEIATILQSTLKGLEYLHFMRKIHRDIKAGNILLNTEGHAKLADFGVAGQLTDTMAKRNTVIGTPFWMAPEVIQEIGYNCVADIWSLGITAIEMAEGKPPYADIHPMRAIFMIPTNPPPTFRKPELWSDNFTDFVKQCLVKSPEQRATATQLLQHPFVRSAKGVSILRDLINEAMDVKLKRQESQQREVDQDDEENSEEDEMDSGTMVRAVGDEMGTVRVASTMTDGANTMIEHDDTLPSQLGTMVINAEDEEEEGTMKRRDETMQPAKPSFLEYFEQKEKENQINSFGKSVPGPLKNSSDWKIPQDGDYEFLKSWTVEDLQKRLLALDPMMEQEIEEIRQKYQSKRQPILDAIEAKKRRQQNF
In short: as §1

HIPK1 (Myak) = target: T18, HIPK1 (Myak) (Homo sapiens, UniProt Q86Z02)
T18 construct: purchased ThermoFisher (SelectScreen, Z'-LYTE)
In short: as §1

CAMK2B (CaMKII beta) = target: T19, CAMK2B (CaMKII beta) (Homo sapiens, UniProt Q13554)
T19 construct: purchased ThermoFisher (SelectScreen, Z'-LYTE)
In short: as §1

CSF1R (FMS) = target: T20, CSF1R (FMS) (Homo sapiens, UniProt P07333); conditions: 10 µM compound, ATP Km app
T20 construct: purchased ThermoFisher (SelectScreen, Z'-LYTE)
In short: as §1

T12 sequence (P49759 whole entry): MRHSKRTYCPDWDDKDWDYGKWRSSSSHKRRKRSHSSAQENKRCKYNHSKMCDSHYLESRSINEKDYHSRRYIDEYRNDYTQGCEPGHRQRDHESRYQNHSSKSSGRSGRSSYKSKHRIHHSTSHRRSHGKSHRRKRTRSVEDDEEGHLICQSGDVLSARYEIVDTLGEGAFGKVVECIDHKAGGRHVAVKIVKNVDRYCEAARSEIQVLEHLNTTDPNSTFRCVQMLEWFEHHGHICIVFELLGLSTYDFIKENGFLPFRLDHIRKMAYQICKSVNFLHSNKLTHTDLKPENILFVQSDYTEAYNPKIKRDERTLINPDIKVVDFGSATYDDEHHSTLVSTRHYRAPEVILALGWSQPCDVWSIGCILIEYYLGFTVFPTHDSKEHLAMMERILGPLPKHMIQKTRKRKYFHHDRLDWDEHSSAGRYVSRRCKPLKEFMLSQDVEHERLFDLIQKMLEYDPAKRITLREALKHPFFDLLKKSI
T16 sequence (O43293 whole entry): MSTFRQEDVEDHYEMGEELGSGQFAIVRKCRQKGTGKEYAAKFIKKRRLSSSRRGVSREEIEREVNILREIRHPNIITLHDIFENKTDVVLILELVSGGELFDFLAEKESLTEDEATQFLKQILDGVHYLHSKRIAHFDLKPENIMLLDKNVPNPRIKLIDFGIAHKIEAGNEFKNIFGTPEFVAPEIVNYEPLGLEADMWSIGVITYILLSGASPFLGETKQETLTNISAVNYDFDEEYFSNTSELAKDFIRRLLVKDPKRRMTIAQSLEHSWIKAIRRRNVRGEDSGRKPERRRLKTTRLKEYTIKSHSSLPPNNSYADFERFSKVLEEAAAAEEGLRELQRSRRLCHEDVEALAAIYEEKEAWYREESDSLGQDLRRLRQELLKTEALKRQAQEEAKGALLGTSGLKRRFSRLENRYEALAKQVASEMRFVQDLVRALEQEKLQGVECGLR
T20 sequence (P07333 20-972): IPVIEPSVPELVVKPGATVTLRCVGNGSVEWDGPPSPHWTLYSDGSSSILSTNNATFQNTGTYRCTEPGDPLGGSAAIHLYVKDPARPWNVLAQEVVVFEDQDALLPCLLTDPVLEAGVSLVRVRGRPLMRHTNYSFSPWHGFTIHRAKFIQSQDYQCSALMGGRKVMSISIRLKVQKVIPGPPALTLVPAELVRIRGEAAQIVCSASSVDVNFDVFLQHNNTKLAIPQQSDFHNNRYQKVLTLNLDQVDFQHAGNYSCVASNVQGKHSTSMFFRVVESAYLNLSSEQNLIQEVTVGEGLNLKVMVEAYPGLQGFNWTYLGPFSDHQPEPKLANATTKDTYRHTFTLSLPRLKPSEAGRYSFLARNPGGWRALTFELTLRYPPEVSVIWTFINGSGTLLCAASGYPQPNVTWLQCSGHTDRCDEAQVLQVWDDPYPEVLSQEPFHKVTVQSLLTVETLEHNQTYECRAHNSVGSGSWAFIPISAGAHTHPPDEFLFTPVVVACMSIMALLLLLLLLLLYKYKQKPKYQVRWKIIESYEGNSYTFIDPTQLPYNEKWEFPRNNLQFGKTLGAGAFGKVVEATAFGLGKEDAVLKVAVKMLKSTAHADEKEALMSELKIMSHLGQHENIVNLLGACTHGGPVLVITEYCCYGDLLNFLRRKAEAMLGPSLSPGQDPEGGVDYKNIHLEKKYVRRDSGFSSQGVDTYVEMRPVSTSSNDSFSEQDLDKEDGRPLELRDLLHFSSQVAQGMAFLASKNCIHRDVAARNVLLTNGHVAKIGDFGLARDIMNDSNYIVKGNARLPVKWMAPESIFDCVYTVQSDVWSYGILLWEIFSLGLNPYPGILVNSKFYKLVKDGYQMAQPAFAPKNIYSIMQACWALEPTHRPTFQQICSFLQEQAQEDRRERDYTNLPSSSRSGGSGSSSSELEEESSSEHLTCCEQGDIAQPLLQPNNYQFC
T13 sequence (P42685 whole entry): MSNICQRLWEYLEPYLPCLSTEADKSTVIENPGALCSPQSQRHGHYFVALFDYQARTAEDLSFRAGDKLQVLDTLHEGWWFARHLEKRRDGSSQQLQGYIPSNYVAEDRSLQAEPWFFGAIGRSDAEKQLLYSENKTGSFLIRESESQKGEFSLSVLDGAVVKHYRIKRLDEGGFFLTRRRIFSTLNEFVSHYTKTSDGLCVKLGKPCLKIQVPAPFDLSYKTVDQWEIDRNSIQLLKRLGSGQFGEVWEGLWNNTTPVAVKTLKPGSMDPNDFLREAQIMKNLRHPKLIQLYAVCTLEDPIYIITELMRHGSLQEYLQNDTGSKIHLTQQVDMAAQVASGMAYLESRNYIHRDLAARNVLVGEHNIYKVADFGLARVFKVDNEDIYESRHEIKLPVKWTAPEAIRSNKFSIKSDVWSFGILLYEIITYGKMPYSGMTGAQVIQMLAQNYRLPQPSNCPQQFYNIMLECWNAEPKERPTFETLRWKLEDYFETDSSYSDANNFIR
T9 sequence (Q00535 whole entry): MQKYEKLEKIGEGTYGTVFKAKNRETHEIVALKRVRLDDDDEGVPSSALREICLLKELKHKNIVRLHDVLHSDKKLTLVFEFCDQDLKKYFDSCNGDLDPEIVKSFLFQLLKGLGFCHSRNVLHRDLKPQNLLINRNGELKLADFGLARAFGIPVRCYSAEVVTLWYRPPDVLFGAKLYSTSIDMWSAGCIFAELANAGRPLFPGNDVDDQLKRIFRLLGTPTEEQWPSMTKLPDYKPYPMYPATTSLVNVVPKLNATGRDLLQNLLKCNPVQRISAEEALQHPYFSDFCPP
T9 sequence (Q15078 whole entry partner): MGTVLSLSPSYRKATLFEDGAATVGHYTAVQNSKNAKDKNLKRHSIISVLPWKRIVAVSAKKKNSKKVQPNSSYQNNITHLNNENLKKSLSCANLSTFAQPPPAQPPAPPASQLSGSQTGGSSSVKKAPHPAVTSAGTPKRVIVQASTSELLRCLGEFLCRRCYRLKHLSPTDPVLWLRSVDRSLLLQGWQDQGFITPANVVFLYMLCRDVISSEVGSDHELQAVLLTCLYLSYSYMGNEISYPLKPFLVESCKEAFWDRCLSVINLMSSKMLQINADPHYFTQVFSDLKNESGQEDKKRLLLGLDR
T6 sequence (Q06187 whole entry): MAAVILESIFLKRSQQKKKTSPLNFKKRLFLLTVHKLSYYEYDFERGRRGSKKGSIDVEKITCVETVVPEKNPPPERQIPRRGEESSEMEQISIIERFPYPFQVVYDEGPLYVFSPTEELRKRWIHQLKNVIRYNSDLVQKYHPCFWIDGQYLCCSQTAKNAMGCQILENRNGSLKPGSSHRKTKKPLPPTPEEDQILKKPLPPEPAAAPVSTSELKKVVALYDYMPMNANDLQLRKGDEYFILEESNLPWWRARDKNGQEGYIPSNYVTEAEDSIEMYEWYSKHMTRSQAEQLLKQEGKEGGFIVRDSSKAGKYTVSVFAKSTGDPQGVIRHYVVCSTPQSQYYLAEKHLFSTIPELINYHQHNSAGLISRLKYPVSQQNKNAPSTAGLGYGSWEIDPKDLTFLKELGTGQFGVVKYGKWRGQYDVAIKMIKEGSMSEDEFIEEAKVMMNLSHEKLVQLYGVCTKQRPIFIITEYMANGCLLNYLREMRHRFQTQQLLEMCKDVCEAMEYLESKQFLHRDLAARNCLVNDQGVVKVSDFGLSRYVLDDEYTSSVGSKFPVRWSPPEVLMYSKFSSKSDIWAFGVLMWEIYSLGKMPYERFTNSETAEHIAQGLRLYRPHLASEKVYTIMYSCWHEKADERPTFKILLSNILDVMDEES
T5 sequence (P29376 17-864): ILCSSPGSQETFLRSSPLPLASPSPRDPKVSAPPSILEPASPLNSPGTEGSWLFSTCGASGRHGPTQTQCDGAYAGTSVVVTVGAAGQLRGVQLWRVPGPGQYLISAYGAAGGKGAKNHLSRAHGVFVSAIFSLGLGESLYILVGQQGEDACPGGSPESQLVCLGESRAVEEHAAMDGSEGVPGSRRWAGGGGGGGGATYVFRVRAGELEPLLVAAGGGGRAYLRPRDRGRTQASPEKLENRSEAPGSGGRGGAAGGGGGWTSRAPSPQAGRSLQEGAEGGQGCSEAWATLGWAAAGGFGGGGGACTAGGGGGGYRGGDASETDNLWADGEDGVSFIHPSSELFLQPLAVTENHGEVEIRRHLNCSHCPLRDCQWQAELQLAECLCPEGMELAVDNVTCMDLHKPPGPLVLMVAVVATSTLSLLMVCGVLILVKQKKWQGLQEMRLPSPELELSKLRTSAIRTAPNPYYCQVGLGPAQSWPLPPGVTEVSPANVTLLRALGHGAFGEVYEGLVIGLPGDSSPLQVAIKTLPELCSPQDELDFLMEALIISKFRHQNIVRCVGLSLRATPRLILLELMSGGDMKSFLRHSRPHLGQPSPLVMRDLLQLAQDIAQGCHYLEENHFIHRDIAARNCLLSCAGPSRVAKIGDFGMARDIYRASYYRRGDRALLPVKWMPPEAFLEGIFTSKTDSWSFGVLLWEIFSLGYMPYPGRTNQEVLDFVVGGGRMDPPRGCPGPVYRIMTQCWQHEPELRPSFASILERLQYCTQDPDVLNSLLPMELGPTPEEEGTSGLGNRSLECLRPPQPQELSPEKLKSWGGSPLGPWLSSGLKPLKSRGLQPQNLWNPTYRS
T10 sequence (P31751 whole entry): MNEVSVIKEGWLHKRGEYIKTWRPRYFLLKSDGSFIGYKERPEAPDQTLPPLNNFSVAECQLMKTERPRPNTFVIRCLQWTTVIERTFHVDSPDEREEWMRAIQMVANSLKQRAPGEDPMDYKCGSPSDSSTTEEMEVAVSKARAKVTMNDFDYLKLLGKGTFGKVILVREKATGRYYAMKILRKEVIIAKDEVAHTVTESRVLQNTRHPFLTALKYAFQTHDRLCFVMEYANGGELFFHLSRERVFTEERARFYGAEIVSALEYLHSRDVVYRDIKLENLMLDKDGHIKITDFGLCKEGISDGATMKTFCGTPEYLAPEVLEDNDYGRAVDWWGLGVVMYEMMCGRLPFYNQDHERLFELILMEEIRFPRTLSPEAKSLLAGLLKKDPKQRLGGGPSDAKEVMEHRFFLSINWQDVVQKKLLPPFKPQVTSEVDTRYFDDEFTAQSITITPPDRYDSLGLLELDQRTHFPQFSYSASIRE

Molecule | inhibition at 10 µM (DYRK4) | inhibition at 10 µM (FES (FPS)) | inhibition at 10 µM (PTK2B (FAK2)) | inhibition at 10 µM [1] | inhibition at 10 µM (LTK (TYK1)) | inhibition at 10 µM (BTK) | inhibition at 10 µM (MAPK11 (p38 beta)) | inhibition at 10 µM (STK25 (YSK1)) | inhibition at 10 µM (CDK5/p35) | inhibition at 10 µM (AKT2 (PKB beta)) | inhibition at 10 µM (PRKCZ (PKC zeta)) | inhibition at 10 µM (CLK1) | inhibition at 10 µM (FRK (PTK5)) | inhibition at 10 µM (RET) | inhibition at 10 µM (STK24 (MST3)) | inhibition at 10 µM (DAPK3 (ZIPK)) | inhibition at 10 µM (STK4 (MST1)) | inhibition at 10 µM (HIPK1 (Myak)) | inhibition at 10 µM (CAMK2B (CaMKII beta)) | inhibition at 10 µM (CSF1R (FMS)) | further results
Cc1ncc(-c2nc(Nc3ccc(C(=O)NCCN4CCCCC4)cc3)ncc2F)n1C(C)C [Compound 3] | 23% | 106% | 94% | 9% | 73% | 59% | 22% | 72% | 106% | 7% | 18% | 101% | 68% | 95% | 89% | 78% | 82% | 83% | 70% | 94% | –
Cc1cc(Nc2nc(N)nn2C(=O)NC(C)C)ccc1Cl [Compound 5] | 5% | 9% | 23% | 9% | 18% | 11% | 4.21% | 12% | 71% | -0.29% | 4% | 10% | 21% | 44% | 27% | -7.41% | 65% | -2.24% | -2.29% | > 80% | CSF1R (FMS) % Inhibition (CSF1R (FMS); listed as SN1109056190, 10 µM): 81%
XMD8-92 [Compound 2, reference compound] | – | – | – | – | – | – | – | – | – | – | – | – | – | – | – | – | – | – | – | – | DYRK4 % Inhibition (DYRK4; 10 µM compound, ATP Km app): 1.2%; FES (FPS) % Inhibition (FES (FPS); 10 µM compound, ATP Km app): 78%; PTK2B (FAK2) % Inhibition (PTK2B (FAK2); 10 µM compound, ATP Km app): 20%; MAPK14 (p38 alpha) Direct % Inhibition ([1]; 10 µM compound, ATP Km app): 8%; LTK (TYK1) % Inhibition (LTK (TYK1); 10 µM compound, ATP Km app): 24%; BTK % Inhibition (BTK; 10 µM compound, ATP Km app): 35%; MAPK11 (p38 beta) % Inhibition (MAPK11 (p38 beta); 10 µM compound, ATP Km app): 10%; STK25 (YSK1) % Inhibition (STK25 (YSK1); 10 µM compound, ATP Km app): 9.49%; CDK5/p35 % Inhibition (CDK5/p35; 10 µM compound, ATP Km app): 77%; AKT2 (PKB beta) % Inhibition (AKT2 (PKB beta); 10 µM compound, ATP Km app): 98%; PRKCZ (PKC zeta) % Inhibition (PRKCZ (PKC zeta); 10 µM compound, ATP Km app): -2.33%; CLK1 % Inhibition (CLK1; 10 µM compound, ATP Km app): 6%; FRK (PTK5) % Inhibition (FRK (PTK5); 10 µM compound, ATP Km app): 20%; RET % Inhibition (RET; 10 µM compound, ATP Km app): 40%; STK24 (MST3) % Inhibition (STK24 (MST3); 10 µM compound, ATP Km app): 30%; DAPK3 (ZIPK) % Inhibition (DAPK3 (ZIPK); 10 µM compound, ATP Km app): -0.894%; STK4 (MST1) % Inhibition (STK4 (MST1); 10 µM compound, ATP Km app): 6%; HIPK1 (Myak) % Inhibition (HIPK1 (Myak); 10 µM compound, ATP Km app): 6%; CAMK2B (CaMKII beta) % Inhibition (CAMK2B (CaMKII beta); 10 µM compound, ATP Km app): 70%; CSF1R (FMS) % Inhibition (CSF1R (FMS)): 29%
